Measurements taken from patent US20210181109A1 (FUJIFILM Corporation, priority 2018, published 2021).
Counter-ions that a name gives are not always drawn. Like-named read-outs stand apart in the source and are kept apart here.

Assays:
[1] = NAC depletion percent, HPLC-fluorescence detection
How it was run: (§1)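 NAC at 5 μmol/L in pH 8.0 phosphate buffer reacted with test substance (1 mmol/L stock in water, acetonitrile, acetone or 5% DMSO/acetonitrile) 24 h at 25 °C in the dark, n=3. Stopped with TFA (0.5% final); unreacted NAC quantified by HPLC, depletion percent calculated against blank without test substance.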

[2] = NAL depletion percent, HPLC-fluorescence detection
How it was run: (§2)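 NAL (5 μmol/L, pH 10.2 phosphate buffer) reacted with test substance (1 mmol/L stock in water, acetonitrile, acetone or 5% DMSO/acetonitrile) for 24 h at 25 °C in the dark; stopped with TFA to 0.5%. Unreacted NAL quantified by HPLC (UV or fluorescence), n=3; depletion % relative to substance-free blank.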

[3] = Average score of NAC and NAL depletion and prediction of skin allergenicity, fluorescence method
How it was run: (§3)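 Score is the mean of NAC and NAL depletion percentages, rounded at the second decimal place. Test substances classed as allergenic (S) or non-allergenic (NS) from depletion of NAC, NAL, or their average score.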

[4] = NAC depletion percent, HPLC-UV detection (281 nm); details: Reference (UV method)
How it was run: as §1

[5] = NAL depletion percent, HPLC-UV detection (281 nm); details: Reference (UV method)
How it was run: as §2

[6] = Average score of NAC and NAL depletion and prediction of skin allergenicity, UV method
How it was run: as §3

[7] = cited from earlier work
[8] = single substance, test substance solution 1 mmol/L, fluorescence method
[9] = single substance, fluorescence method, criterion average score […]
[10] = single substance, test substance solution 1 mmol/L
[11] = single substance, Reference (UV method), criterion average score […]
[12] = single substance, test substance solution 1 mmol/L, Reference (UV method)
[13] = known values, LLNA-test-based classification, − for non-allergenic substances
[14] = Fluorescence method, non-allergenic substance

SMILES	NAC depletion (%) [1, 8]	NAL depletion (%) [2, 8]	Prediction result [3, 9]	Average score [3, 8]	NAC depletion (%) [4, 10]	NAL depletion (%) [5, 10]	Prediction result [6, 11]	Average score [6, 12]	EC3 (%) [7, 13]	EC3 (%) ([7]; in vivo)	Prediction result [3]	Prediction result [6]	NAC depletion (%) [1, 14]	NAL depletion (%) [2, 14]	Prediction result ([3]; Fluorescence method, skin allergenicity prediction)	NAC depletion (%) ([4]; non-allergenic substance)	NAL depletion (%) ([5]; non-allergenic substance)	Prediction result ([6]; Reference (UV method), skin allergenicity prediction)	Average score [3]	Average score [6]
CCOC(=O)/C=C\C(=O)OCC [Diethyl maleate]	31.2%	4.7%	S (S represents as being an allergenic substance)	18.0%	31.8%	7.7%	S (S represents as being an allergenic substance)	19.8%	5.8%	–	–	–	–	–	–	–	–	–	–	–
O=c1c(-c2ccccc2)c1-c1ccccc1 [Diphenylcyclopropenone]	29.7%	2.4%	S (S represents as being an allergenic substance)	16.0%	28.7%	6.3%	S (S represents as being an allergenic substance)	17.5%	0.0003%	–	–	–	–	–	–	–	–	–	–	–
C=CC(=O)OCC [Ethyl acrylate]	88.7%	10.6%	S (S represents as being an allergenic substance)	49.6%	87.8%	13.7%	S (S represents as being an allergenic substance)	50.8%	–	28%	–	–	–	–	–	–	–	–	–	–
C=C(C)C(=O)OCCOC(=O)C(=C)C [Ethylene glycol dimethacrylate]	7.3%	1.5%	NS (NS represents as being a non-allergenic substance)	4.4%	5.9%	2.6%	NS (NS represents as being a non-allergenic substance)	4.3%	28%	–	–	–	–	–	–	–	–	–	–	–
O=CCCCC=O [Glutaraldehyde]	0.0%	47.4%	S (S represents as being an allergenic substance)	23.7%	0.8%	53.1%	S (S represents as being an allergenic substance)	26.9%	0.1%	–	–	–	–	–	–	–	–	–	–	–
O=CC=O [Glyoxal]	24.9%	0.4%	–	12.7%	12.8%	0.8%	–	6.8%	–	1.4%	S (key: S represents as being an allergenic substance; NS represents as being a non-allergenic substance)	S (key: S represents as being an allergenic substance; NS represents as being a non-allergenic substance)	–	–	–	–	–	–	–	–
CC(CC=O)CCCC(C)(C)O (centres unmarked) [Hydroxycitronellal]	16.0%	0.0%	S (S represents as being an allergenic substance)	8.0%	17.5%	1.5%	S (S represents as being an allergenic substance)	9.5%	33%	–	–	–	–	–	–	–	–	–	–	–
CCCCCCCCCCCCOC(=O)c1cc(O)c(O)c(O)c1 [Lauryl gallate]	99.5%	15.9%	S (S represents as being an allergenic substance)	57.7%	100.0%	19.0%	S (S represents as being an allergenic substance)	59.5%	0.3%	–	–	–	–	–	–	–	–	–	–	–
CCCCCCC#CC(=O)OC [Methyl 2-nonynoate]	12.4%	3.2%	S (S represents as being an allergenic substance)	7.8%	15.0%	1.4%	S (S represents as being an allergenic substance)	8.2%	2.5%	–	–	–	–	–	–	–	–	–	–	–
CNc1ccc(O)cc1.CNc1ccc(O)cc1.O=S(=O)(O)O [Metol]	100.0%	15.9%	S (S represents as being an allergenic substance)	57.9%	100.0%	22.8%	S (S represents as being an allergenic substance)	61.4%	0.8%	–	–	–	–	–	–	–	–	–	–	–
CCCCCCCCC(=O)O [Nonanoic acid]	–	–	–	–	–	–	–	–	21%	–	–	–	0.0%	0.0%	NS (NS represents as being a non-allergenic substance)	0.0%	1.3%	NS (NS represents as being a non-allergenic substance)	–	–
CCCCCCCCC(=O)Cl [Nonanoyl chloride]	8.9%	54.5%	S (S represents as being an allergenic substance)	31.7%	7.4%	39.4%	S (S represents as being an allergenic substance)	23.4%	1.8%	–	–	–	–	–	–	–	–	–	–	–
CCO/C=C1\N=C(c2ccccc2)OC1=O [Oxazolone]	92.0%	65.5%	–	–	85.3%	80.1%	–	–	–	0.003%	S (key: S represents as being an allergenic substance; NS represents as being a non-allergenic substance)	S (key: S represents as being an allergenic substance; NS represents as being a non-allergenic substance)	–	–	–	–	–	–	78.8%	82.7%
CCCCCCCCCCCCCCCC(=O)Cl [Palmitoyl chloride]	11.5%	98.3%	S (S represents as being an allergenic substance)	54.9%	5.8%	95.9%	S (S represents as being an allergenic substance)	50.8%	8.8%	–	–	–	–	–	–	–	–	–	–	–
C=C(C)C1CC=C(C=O)CC1 (centres unmarked) [Perillaldehyde]	42.4%	7.1%	S (S represents as being an allergenic substance)	24.7%	29.1%	18.5%	S (S represents as being an allergenic substance)	23.8%	8.1%	–	–	–	–	–	–	–	–	–	–	–
O=CCc1ccccc1 [Phenylacetaldehyde]	9.5%	96.2%	S (S represents as being an allergenic substance)	52.9%	22.4%	98.3%	S (S represents as being an allergenic substance)	60.3%	3%	–	–	–	–	–	–	–	–	–	–	–
O=C1OC(=O)c2ccccc21 [Phthalic anhydride]	0.3%	92.6%	S (S represents as being an allergenic substance)	46.4%	0.3%	96.9%	S (S represents as being an allergenic substance)	48.6%	0.16%	–	–	–	–	–	–	–	–	–	–	–
CCCOC(=O)c1cc(O)c(O)c(O)c1 [Propyl gallate]	100.0%	65.3%	S (S represents as being an allergenic substance)	82.6%	97.1%	56.4%	S (S represents as being an allergenic substance)	76.7%	0.32%	–	–	–	–	–	–	–	–	–	–	–
O=c1c(O)c(O)c1=O [Squaric acid]	1.0%	0.1%	–	0.5%	0.8%	0.5%	–	0.6%	–	4.3%	–	–	–	–	–	–	–	–	–	–
O=C(O)c1ccc2c(c1)C(=O)OC2=O [Trimellitic anhydride]	0.8%	94.2%	S (S represents as being an allergenic substance)	47.5%	1.9%	97.0%	S (S represents as being an allergenic substance)	49.4%	0.6%	–	–	–	–	–	–	–	–	–	–	–
O=C1C=CC(=O)C=C1 [p-Benzoquinone]	100.0%	71.8%	–	85.9%	96.5%	83.5%	S (S represents as being an allergenic substance)	90.0%	0.0099%	–	S (key: S represents as being an allergenic substance; NS represents as being a non-allergenic substance)	–	–	–	–	–	–	–	–	–
